Laboratory results reported in patent US20090162425A1, “METHODS AND COMPOSITIONS FOR INHIBITING UNDESIRABLE CELLULAR PROLIFERATION BY TARGETED LIPOSOME DELIVERY OF ACTIVE AGENTS” (University of Tennessee Research Foundation, priority 2007, published 2009).

Experiments:
avidin = avidin (Gallus gallus, UniProt P02701); conditions: avidin-biotin interaction; cited from earlier work
[1] = tested on: C6 GFP flank glioma tumors; conditions: 2 mg/Kg paclitaxel administered systemically, flank model
Procedure: Tumor growth was measured on every 3rd day with a vernier caliper, and tumor volume was measured using the formula
Injections were made using the retro orbital route of administration. For monitoring changes in tumor volume, tumor growth was measured every 3rd day with a vernier caliper, and tumor volume was measured as described in previous section.
The tumor growth delay was defined as the time required for a treated tumor to reach a specific volume (130 mm^3) minus the time for the untreated tumor to reach that same volume.

[2] = tested on: C6 GFP intracranial glioma tumors; conditions: 2 mg/Kg paclitaxel administered systemically, intracranial model
Procedure: The animals were monitored visually on a daily basis and weights were measured on every 3rd day until they lost 10% of their body weight.
After 5 days of tumor cell inoculation, animals were assigned randomly to 3 groups (n=3-4 per group). […] The animals were then sacrificed on the 9th day of treatment and the brains were isolated.
Tumor areas were measured METAMORPH® software after taking optical images with a CCD camera with GFP filter.

[3] = in vivo; cited from earlier work
[4] = cited from earlier work

avidin, sequence (P02701 25-152): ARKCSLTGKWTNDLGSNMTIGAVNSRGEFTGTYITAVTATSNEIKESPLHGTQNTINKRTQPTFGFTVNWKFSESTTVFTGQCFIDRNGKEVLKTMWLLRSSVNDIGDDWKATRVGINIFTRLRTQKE

## O=C(O)CCCC[C@@H]1SC[C@@H]2NC(=O)N[C@@H]21 [biotin]
avidin
  dissociation half-life: about 89 days

## CC(=O)O[C@H]1C(=O)[C@@]2(C)[C@H]([C@H](OC(=O)c3ccccc3)[C@]3(O)C[C@H](OC(=O)[C@H](O)[C@@H](NC(=O)c4ccccc4)c4ccccc4)C(C)=C1C3(C)C)[C@]1(OC(C)=O)CO[C@@H]1C[C@@H]2O [paclitaxel]
[1]
  gross deleterious effects (clinical monitoring and daily weights): no gross deleterious effects
[2]
  gross deleterious effects (clinical monitoring and daily weights): no gross deleterious effects
[3]
  drug bound to plasma proteins: More than 90%
  terminal half-life (mean): 5 h
  terminal half-life (range): 1.3 to 8.6 h
[4]
  log P: 3.96
